Results as given in patent US8946439B2, “Amide compounds, compositions and uses thereof” (Evotec AG, priority 2008, dated 2015).

Tests used:
hP2X2/3H = target: T1, hP2X2/3H (Homo sapiens, UniProt P56373+Q9UBL9); assay: Calcium uptake assay (P2X antagonist assay), P2X2/3 heteromer; format: cell-based; settings: Ca influx (calcium uptake assay), hP2X2/3H; read-out: IC50 hP2X2/3H
T1 construct: expressed in transfected cells; host or cells: e.g. HEK293 or 1321N1
T1 sequence (Q9UBL9 1-471): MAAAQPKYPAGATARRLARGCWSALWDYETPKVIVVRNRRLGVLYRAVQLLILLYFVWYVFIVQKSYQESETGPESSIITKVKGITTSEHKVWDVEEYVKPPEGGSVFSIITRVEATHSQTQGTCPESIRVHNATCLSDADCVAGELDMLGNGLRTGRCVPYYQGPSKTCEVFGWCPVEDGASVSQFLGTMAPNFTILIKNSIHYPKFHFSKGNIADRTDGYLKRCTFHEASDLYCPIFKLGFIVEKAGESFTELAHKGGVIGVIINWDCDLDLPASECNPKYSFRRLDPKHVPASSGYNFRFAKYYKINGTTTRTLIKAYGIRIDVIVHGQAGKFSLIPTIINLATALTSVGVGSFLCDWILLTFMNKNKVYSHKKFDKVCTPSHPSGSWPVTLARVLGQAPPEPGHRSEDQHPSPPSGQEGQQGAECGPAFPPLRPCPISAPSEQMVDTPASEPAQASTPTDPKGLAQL
T1 sequence (P56373 1-397): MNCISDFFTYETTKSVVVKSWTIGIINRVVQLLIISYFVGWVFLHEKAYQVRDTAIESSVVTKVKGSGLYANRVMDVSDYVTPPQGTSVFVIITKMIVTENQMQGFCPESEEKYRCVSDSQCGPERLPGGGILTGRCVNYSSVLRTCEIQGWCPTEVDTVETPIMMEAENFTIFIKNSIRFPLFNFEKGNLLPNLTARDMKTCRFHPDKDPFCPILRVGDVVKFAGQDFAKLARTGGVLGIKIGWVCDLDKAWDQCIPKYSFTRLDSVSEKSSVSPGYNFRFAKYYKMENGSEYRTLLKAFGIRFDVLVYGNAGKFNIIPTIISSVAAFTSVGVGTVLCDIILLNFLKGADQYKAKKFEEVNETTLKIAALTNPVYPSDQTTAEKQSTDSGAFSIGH
Method in brief: (§1)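 Stably or transiently transfected HEK293 or 1321N1 cells; the heteromer is made by adding P2X3 to a P2X2-stable line, with heteromer function isolated pharmacologically. The peak-minus-baseline FLIPR calcium signal gives % inhibition and a 4-parameter-logistic IC50.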

hP2X3 = target: T2, hP2X3 (Homo sapiens, UniProt P56373); assay: Calcium uptake assay (P2X antagonist assay), P2X3 homomer; format: cell-based; settings: Ca influx (calcium uptake assay), hP2X3; read-out: IC50 hP2X3
T2 construct: expressed in transfected cells; host or cells: e.g. HEK293 or 1321N1
T2 sequence (P56373 1-397): T1 sequence (P56373 1-397)
Method in brief: as §1

SMILES	IC50 (hP2X2/3H) [µM]	IC50 (hP2X3) [µM]
Cc1ccc(-c2cc(C(=O)N[C@H](C)c3ccc(C)nc3)cc(C(O)c3ccccn3)c2)cc1 (stereo partly drawn) [Compound 241, 5-(Hydroxy(pyridin-2-yl)methyl)-4′-methyl-N—((R)-1-(6-methylpyridin-3-yl)ethyl)biphenyl-3-carboxamide]	< 0.1	< 0.1
Cc1ccc(-c2cc(CN3CCN(C)CC3)cc(C(=O)NCc3ccc(C)nc3)c2)nc1 [Compound 244]	0.501 to 1	0.1 to 0.5
Cc1ccc(-c2cc(Oc3ncccn3)cc(C(=O)N[C@H](C)c3cnc(C)nc3)c2)c(C#N)c1 [Compound 247]	0.1 to 0.5	< 0.1
COCCOc1cc(C(=O)NCc2cnc(C)nc2)cc(-c2ccc(C)cc2)c1 [Compound 250]	0.1 to 0.5	< 0.1
COCCOc1cc(C(=O)N[C@H](C)c2cnc(C)nc2)cc(-c2ccc(C)cc2C#N)c1 [Compound 253]	< 0.1	< 0.1
Cc1ccc(-c2cc(Oc3nccs3)cc(C(=O)N[C@H](C)c3ccc(C)nc3)c2)c(C#N)c1 [Compound 255]	< 0.1	< 0.1
Cc1ccc(-c2cc(C(=O)NCc3ccc(C)[n+]([O-])c3)cc(S(C)(=O)=O)c2)cc1 [Compound 256, 2-Methyl-5-((4′-methyl-5-(methylsulfonyl)biphenyl-3-ylcarboxamido)methyl)pyridine 1-oxide]	< 0.1	< 0.1
Cc1ccc(-c2cc(Oc3ccccn3)cc(C(=O)N[C@H](C)c3cnc(C)nc3)c2)c(C#N)c1 [Compound 258]	0.1 to 0.5	< 0.1
Cc1ccc(-c2cc(Oc3ccccn3)cc(C(=O)N[C@H](C)c3ccc(C)nc3)c2)c(C#N)c1 [Compound 259]	< 0.1	< 0.1
COCCOc1cc(C(=O)NCc2cnc(C)nc2)cc(-c2ccc(C)cc2C#N)c1 [Compound 262]	0.1 to 0.5	< 0.1
Cc1ccc(-c2cc(C(=O)N[C@H](C)c3cnc(C)nc3)cc(C(O)c3ccccn3)c2)cc1 (stereo partly shown) [Compound 268]	< 0.1	< 0.1
Cc1ccc(-c2cc(Oc3nccs3)cc(C(=O)N[C@H](C)c3cnc(C)nc3)c2)nc1 [Compound 269, (R)-3-(5-Methylpyridin-2-yl)-N-(1-(2-methylpyrimidin-5-yl)ethyl)-5-(thiazol-2-yloxy)benzamide]	< 0.1	< 0.1
Cc1ccc(-c2cc(Oc3ccccn3)cc(C(=O)N[C@H](C)c3ccc(C)nc3)c2)nc1 [Compound 271]	< 0.1	< 0.1
Cc1ccc(-c2cc(Oc3ncccn3)cc(C(=O)N[C@H](C)c3cnc(C)nc3)c2)nc1 [Compound 273]	0.501 to 1	0.1 to 0.5
Cc1ccc(-c2cc(C(=O)N[C@H](C)c3ccc(C)nc3)cc(C(O)c3ccccc3)c2)nc1 (stereo partly shown) [Compound 276]	< 0.1	< 0.1
Cc1ccc(-c2cc(C(=O)N[C@H](C)c3cnc(C)nc3)cc(C(O)c3ccccc3)c2)nc1 (stereo partly shown) [Compound 277]	< 0.1	< 0.1
Cc1ccc(-c2cc(C(=O)N[C@H](C)c3cnc(C)nc3)cc(C(O)c3ccccc3)c2)c(C#N)c1 (stereo partly shown) [Compound 278]	< 0.1	< 0.1
Cc1ccc(-c2cc(C(=O)N[C@@H](C)CO)cc(S(=O)(=O)CC(C)C)c2)cc1 [Compound 281]	> 1	< 0.1
Cc1ccc(-c2cc(C(=O)N[C@H](C)c3cnc(C)nc3)cc(C(O)c3nccs3)c2)cc1 (stereo partly shown) [Compound 283]	< 0.1	< 0.1

Other lines, results leading:

IC50 (hP2X2/3H) [µM]	IC50 (hP2X3) [µM]	SMILES
< 0.1	< 0.1	Cc1ccc(-c2cc(Oc3nccs3)cc(C(=O)N[C@H](C)c3ccc(C)nc3)c2)cc1 [Compound 239]
< 0.1	< 0.1	Cc1ccc(-c2cc(C(=O)NCc3ccc(C)nc3)cc(C(O)c3ccccn3)c2)cc1 (stereo not shown) [Compound 240, 5-(Hydroxy(pyridin-2-yl)methyl)-4′-methyl-N-((6-methylpyridin-3-yl)methyl)biphenyl-3-carboxamide]
< 0.1	0.1 to 0.5	Cc1ccc(-c2cc(Oc3ccccn3)cc(C(=O)N[C@H](C)c3ccc(C)nc3)c2)cc1 [Compound 242, (R)-4′-Methyl-N-(1-(6-methylpyridin-3-yl)ethyl)-5-(pyridin-2-yloxy)biphenyl-3-carboxamide]
< 0.1	0.1 to 0.5	Cc1ccc(-c2cc(Oc3ccccn3)cc(C(=O)N[C@H](C)c3cnc(C)nc3)c2)cc1 [Compound 243]
0.1 to 0.5	< 0.1	Cc1ccc(-c2cc(Oc3ncccn3)cc(C(=O)N[C@H](C)c3ccc(C)nc3)c2)c(C#N)c1 [Compound 246]
< 0.1	< 0.1	COCCOc1cc(C(=O)NCc2ccc(C)nc2)cc(-c2ccc(C)cc2)c1 [Compound 248, 5-(2-Methoxyethoxy)-4′-methyl-N-((6-methylpyridin-3-yl)methyl)biphenyl-3-carboxamide]
< 0.1	< 0.1	COCCOc1cc(C(=O)N[C@H](C)c2ccc(C)nc2)cc(-c2ccc(C)cc2)c1 [Compound 249]
< 0.1	< 0.1	COCCOc1cc(C(=O)N[C@H](C)c2cnc(C)nc2)cc(-c2ccc(C)cc2)c1 [Compound 251]
< 0.1	< 0.1	COCCOc1cc(C(=O)N[C@H](C)c2ccc(C)nc2)cc(-c2ccc(C)cc2C#N)c1 [Compound 252]
< 0.1	< 0.1	Cc1ccc(-c2cc(Oc3nccs3)cc(C(=O)N[C@H](C)c3cnc(C)nc3)c2)c(C#N)c1 [Compound 254, (R)-2′-Cyano-4′-methyl-N-(1-(2-methylpyrimidin-5-yl)ethyl)-5-(thiazol-2-yloxy)biphenyl-3-carboxamide]
< 0.1	< 0.1	Cc1ccc(-c2cc(C(=O)N[C@H](CO)c3ccc(C)nc3)cc(S(C)(=O)=O)c2)cc1 [Compound 257, (S)—N-(2-Hydroxy-1-(6-methylpyridin-3-yl)ethyl)-4′-methyl-5-(methylsulfonyl)biphenyl-3-carboxamide]
0.1 to 0.5	< 0.1	Cc1ccc(-c2cc(Oc3nccs3)cc(C(=O)NCc3ccc(C)nc3)c2)c(C#N)c1 [Compound 260]
0.1 to 0.5	< 0.1	Cc1ccc(-c2cc(Oc3nccs3)cc(C(=O)NCc3cnc(C)nc3)c2)c(C#N)c1 [Compound 261]
0.1 to 0.5	< 0.1	COCCOc1cc(C(=O)NCc2ccc(C)nc2)cc(-c2ccc(C)cc2C#N)c1 [Compound 263]
< 0.1	< 0.1	Cc1ccc(-c2cc(Oc3nccs3)cc(C(=O)N[C@H](C)c3ccc(C)nc3)c2)nc1 [Compound 264, (R)-3-(5-Methylpyridin-2-yl)-N-(1-(6-methylpyridin-3-yl)ethyl)-5-(thiazol-2-yloxy)benzamide]
0.1 to 0.5	< 0.1	COCCOc1cc(C(=O)N[C@H](C)c2ccc(C)nc2)cc(-c2ccc(C)cn2)c1 [Compound 265]
0.1 to 0.5	< 0.1	COCCOc1cc(C(=O)N[C@H](C)c2cnc(C)nc2)cc(-c2ccc(C)cn2)c1 [Compound 266]
< 0.1	< 0.1	Cc1ccc(-c2cc(C(=O)NCc3cnc(C)nc3)cc(C(O)c3ccccn3)c2)cc1 (stereo not shown) [Compound 267]
< 0.1	< 0.1	Cc1ccc(-c2cc(Oc3ccccn3)cc(C(=O)N[C@H](C)c3cnc(C)nc3)c2)nc1 [Compound 270]
0.1 to 0.5	< 0.1	Cc1ccc(-c2cc(Oc3ncccn3)cc(C(=O)N[C@H](C)c3ccc(C)nc3)c2)nc1 [Compound 272]
0.1 to 0.5	0.1 to 0.5	COCc1cc(C(=O)N[C@H](C)c2cnc(C)nc2)cc(-c2ccc(C)cn2)c1 [Compound 274, (R)-3-(Methoxymethyl)-5-(5-methylpyridin-2-yl)-N-(1-(2-methylpyrimidin-5-yl)ethyl)benzamide]
0.501 to 1	0.1 to 0.5	COCc1cc(C(=O)NCc2cnc(C)nc2)cc(-c2ccc(C)cn2)c1 [Compound 275]
< 0.1	< 0.1	Cc1ccc(-c2cc(C(=O)N[C@H](C)c3ccc(C)nc3)cc(C(O)c3ccccc3)c2)c(C#N)c1 (stereo partly shown) [Compound 279]
< 0.1	< 0.1	Cc1ccc(-c2cc(C(=O)N[C@H](C)c3ccc(C)nc3)cc(C(O)c3nccs3)c2)cc1 (stereo partly drawn) [Compound 280, 5-(Hydroxy(thiazol-2-yl)methyl)-4′-methyl-N—((R)-1-(6-methylpyridin-3-yl)ethyl)biphenyl-3-carboxamide]
> 1	< 0.1	Cc1ccc(-c2cc(C(=O)N[C@@H](C)CO)cc(S(=O)(=O)C3CCCC3)c2)cc1 [Compound 282]
